From article PMC8819907 (Journal of Experimental & Clinical Cancer Research : CR, 2022)
Like-named read-outs stand apart in the source and are kept apart here.

What was measured:
[1] = test system: BRAF-mutant Colo205, A375P F11s, and HT-29 human tumor xenograft; conditions: 0.3 mg/kg; cited from earlier work
[2] = trametinib and its metabolites; cited from earlier work
[3] = test system: BRAF V600E or V600K mutation-positive melanoma; conditions: 40 patients with prior BRAF inhibitor; 2 mg PO QD; cited from earlier work
[4] = cited from earlier work
[5] = test system: CYP enzymes; BCRP, MRP2, OATP1B1, OATP1B3, OATP2B1, OCT1, MATE1, P-gp, BSEP; conditions: cited from earlier work
[6] = test system: A549 xenograft; set-up: method as in ref 17 (a number printed in a supplementary file, which may have a reference list of its own: not looked up in the article's list); conditions: cited from earlier work
[7] = test system: advanced solid tumors; assay: Tumor response (RECIST 1.1) and PFS (Kaplan Meier); type: in vivo, human;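 also: patients were grouped by hepatic function into four groups, and PFS differences among these groups were tested with a log rank test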
[8] = test system: patients with advanced melanoma; conditions: cited from earlier work
[9] = test system: HCT-116 xenograft; set-up: method as in ref 17 (a number printed in a supplementary file, which may have a reference list of its own: not looked up in the article's list); conditions: cited from earlier work
[10] = target: pMEK1 kinase activity; set-up: method as in ref 19 (a number printed in a supplementary file, which may have a reference list of its own: not looked up in the article's list); conditions: cited from earlier work
[11] = test system: CYP enzymes; conditions: cited from earlier work
[12] = test system: patients with solid tumors or lymphoma; set-up: method as in ref 20 (a number printed in a supplementary file, which may have a reference list of its own: not looked up in the article's list); conditions: cited from earlier work
[13] = test system: MRP2, BSEP, P-gp, BCRP, OATP1B1, OATP1B3, OAT1, OAT3, OCT2, MATE1; conditions: cited from earlier work
[14] = test system: untreated pancreatic cancer; set-up: method as in ref 25 (a number printed in a supplementary file, which may have a reference list of its own: not looked up in the article's list); conditions: gemcitabine plus trametinib 2 mg QD; cited from earlier work
[15] = test system: unresectable stage IIIC or IV cutaneous melanoma with BRAF V600E or V600K mutation; conditions: cited from earlier work
[16] = test system: melanoma, pancreatic cancer, CRC; conditions: cited from earlier work
[17] = 25° C; cited from earlier work
[18] = test system: pERK, Ki67, and p27; set-up: method as in ref 19 (a number printed in a supplementary file, which may have a reference list of its own: not looked up in the article's list); conditions: 2 mg QD, cited from earlier work
[19] = test system: panel of 183 kinases, including MEK5, CRAF, BRAF, ERK1, and ERK2; set-up: method as in ref 18 (a number printed in a supplementary file, which may have a reference list of its own: not looked up in the article's list); conditions: cited from earlier work

CC(=O)Nc1cccc(-n2c(=O)n(C3CC3)c(=O)c3c(Nc4ccc(I)cc4F)n(C)c(=O)c(C)c32)c1 [Trametinib, equimolecular combination of acetamide, N-[3-[3-cyclopropyl-5-[(2-fluoro-4-iodophenyl)amino]-3,4,6,7-tetrahydro6,8-dimethyl-2,4,7-trioxopyrido[4,3-d]pyrimidin-1(2H)-yl]phenyl] with 1,1’-sulfinylbis[methane]]
tumor regression in the Colo205 model [1]: tumor regression was observed
excreted in the feces [2]: ≥ 81%
excreted in urine [2]: ≤ 19%
confirmed PR or CR [3]: None of the patients
terminal half-life ([4]; after single dose administration): 127 h
volume of distribution (Vd) ([4]; following an IV microdose): 1060 L
plasma IV clearance ([4]; human, in vivo, iv): 3.21 L/h
plasma IV clearance as share of liver blood flow ([4]; human, in vivo, iv): approximately 1%
half-life ([4]; patients with normal liver function): approximately 4 days
absolute oral bioavailability ([4]; single 2 mg tablet relative to co-administered IV microdose): 72%
decrease in AUC(0-∞) with a high-fat, high-calorie meal ([4]; single dose, vs fasted): 10%
decrease in Cmax with a high-fat, high-calorie meal ([4]; single dose, vs fasted): 70%
permeability [5]: high permeability
substrate of CYP enzymes ([5]; in vitro): not a substrate
substrate of human BCRP, MRP2, OATP1B1, OATP1B3, OATP2B1, OCT1 or MATE1 transporters ([5]; in vitro): not a substrate
substrate for P-gp and BSEP ([5]; not expected to be clinically relevant): substrate
TGI [6]: 75%
duration of SD (range) ([7]; Mild): 3.0-6.6 months
median duration of SD ([7]; Mild): 4.8 months
Best Response: Partial Response ([7]; Mild DL1 2 mg): 0 (0) n (%)
Best Response: Progressive Disease ([7]; Mild DL1 2 mg): 4 (66.7) n (%)
Best Response: Stable Disease ([7]; Mild DL1 2 mg): 2 (33.3) n (%)
Best Response: Stable Disease ([7]; Mild DL1 2 mg, listed as trametinib): 2 (33.3%) n (%)
median PFS ([7]; Mild group): 1.74 months
duration of SD (range) ([7]; Mod (1.5 mg)): 3.0-3.5 months
median duration of SD ([7]; Mod (1.5 mg)): 3.5 months
duration of SD (range) ([7]; Mod (2 mg)): 2.3-2.4 months
median duration of SD ([7]; Mod (2 mg)): 2.4 months
Best Response: Partial Response ([7]; Mod DL1 1.5 mg): 0 (0) n (%)
Best Response: Progressive Disease ([7]; Mod DL1 1.5 mg): 1 (25.0) n (%)
Best Response: Stable Disease ([7]; Mod DL1 1.5 mg): 3 (75.0) n (%)
Best Response: Stable Disease ([7]; Mod DL1 1.5 mg, listed as trametinib): 3 (75%) n (%)
Best Response: Partial Response ([7]; Mod DL+1 2 mg): 0 (0) n (%)
Best Response: Progressive Disease ([7]; Mod DL+1 2 mg): 1 (33.3) n (%)
Best Response: Stable Disease ([7]; Mod DL+1 2 mg): 2 (66.7) n (%)
Best Response: Stable Disease ([7]; Mod DL+1 2 mg, listed as trametinib): 2 (66%) n (%)
median PFS ([7]; Mod group): 3.45 months
duration of SD (range) ([7]; Norm): 1.9-12.5 months
median duration of SD ([7]; Norm): 3.8 months
Best Response: Partial Response ([7]; Norm 2 mg): 2 (15.4) n (%)
Best Response: Progressive Disease ([7]; Norm 2 mg): 4 (30.8) n (%)
Best Response: Stable Disease ([7]; Norm 2 mg): 7 (53.8) n (%)
Best Response: Stable Disease ([7]; Norm 2 mg, listed as trametinib): 7 (53.8%) n (%)
median PFS ([7]; Norm group): 3.62 months
duration of SD (range) ([7]; Sev (1 mg)): 2.7-4.6 months
median duration of SD ([7]; Sev (1 mg)): 3.4 months
Best Response: Partial Response ([7]; Sev DL1 1 mg): 0 (0) n (%)
Best Response: Progressive Disease ([7]; Sev DL1 1 mg): 1 (25.0) n (%)
Best Response: Stable Disease ([7]; Sev DL1 1 mg): 3 (75.0) n (%)
Best Response: Stable Disease ([7]; Sev DL1 1 mg, listed as trametinib): 3 (75%) n (%)
Best Response: Partial Response ([7]; Sev DL+1 1.5 mg): 0 (0) n (%)
Best Response: Progressive Disease ([7]; Sev DL+1 1.5 mg): 1 (100%) n (%)
Best Response: Stable Disease ([7]; Sev DL+1 1.5 mg): 0 (0) n (%)
Best Response: Stable Disease ([7]; Sev DL+1 1.5 mg, listed as trametinib): 0 (0%) n (%)
median PFS ([7]; Sev group): 2.11 months
Best Response: Partial Response ([7]; Total): 2
Best Response: Progressive Disease ([7]; Total): 12
Best Response: Stable Disease ([7]; Total): 17
Cardiomyopathy resolved ([8]; 10 of 14 patients): 71%
Pruritis ([8]; All Grades): 10%
Stomatitis ([8]; All Grades): 15%
Pruritis ([8]; Grades 3 and 4): 2%
Stomatitis ([8]; Grades 3 and 4): 2%
Dose reduction required for skin toxicities ([8]; in vivo): 12%
Severe skin toxicity ([8]; in vivo): 12%
overall incidence of skin toxicity ([8]; in vivo): 87%
permanent discontinuation for skin toxicities ([8]; in vivo): 1%
median time to onset of skin toxicity ([8]; range: 1 to 221 days): 15 days
median time to resolution of skin toxicity ([8]; range: 1 to 282 days): 48 days
TGI [9]: 83%
IC50 [10]: 13 nM
inhibitor of CYP 1A2, 2A6, 2B6, 2C9, 2C19, 2D6 and 3A4 [11]: not an inhibitor
inhibitor of CYP1A2, CYP2A6, CYP2B6, CYP2D6, and CYP3A4 ([11]; in vitro studies): not an inhibitor
inhibitor of CYP 2C8 ([11]; in vitro): in vitro inhibitor
MTD [12]: 3 mg QD
recommended phase 2 dose (RP2D) [12]: 2 mg QD
inhibitor of P-gp, BCRP, OATP1B1, OATP1B3, OAT1, OAT3, OCT2 and MATE1 ([13]; at systemic concentrations that are not clinically relevant): in vitro inhibitor
inhibitor of MRP2 or BSEP [13]: not an inhibitor
Median OS [14]: 8.4 months
ORR [14]: 22%
median PFS [14]: 16 weeks
median duration of responses [14]: 23.9 weeks
CR, n (%) [15]: 4 (2%) n (%)
Duration of response Median, months (95% CI) [15]: 5.5 (4.1, 5.9) months
Objective Response Rate (95% CI) [15]: 22%
PR, n (%) [15]: 43 (20%) n (%)
6-month OS rate ([15]; in vivo): 81%
PFS Median, months (95% CI) ([15]; investigator-assessed): 4.8 (4.3, 4.9) months
PFS HR (95% CI) ([15]; trametinib vs chemotherapy, P<0.0001): 0.47 (0.34, 0.65)
partial response (PR) ([16]; 9 patients with BRAF wt melanoma): 2 patients
overall objective response rate (ORR) ([16]; 14 patients with BRAF-mutant melanoma, 2 mg QD): 43%
complete responses (CRs) ([16]; 14 patients with BRAF-mutant melanoma): 2
PRs ([16]; 26 evaluable pancreatic cancer patients): 2
objective responses ([16]; 28 patients with colorectal cancer): no objective responses
Approximate Solubility in water [17]: < 0.1 µg/mL
median inhibition of pERK ([18]; BRAF or NRAS mutation-positive metastatic melanoma): 62%
median increase in p27 [18]: 175%
median inhibition of Ki67 [18]: 83%
specificity against a panel of 183 kinases [19]: specificity of trametinib was confirmed
